From patent US4308256A, “Method of inducing analgesia” (American Home Products Corporation, priority 1980, dated 1981)
Bridge positions count the residues as written; N and C are the ends. Square brackets hold non-standard residues; d marks the D form. Peptide text beside a SMILES is read from it. * marks the point of attachment. Ileψ(thiazoline)Cys = CC[C@H](C)[C@H](N)C1=N[C@H](C(=O)*)CS1; dOrn = NCCC[C@@H](N)C(=O)O

Legend:
aminopeptidase = details: cited from earlier work
male Charles River rats = test: D'Amour-Smith rat tail-flick procedure (radiant heat, 8 second cut-off), intraventricular injection; type: in vivo; details: for Tail-flick latency: leucine-enkephalin intraventricular
Method: Intraventricular cannulae, made of 27-gauge stainless steel tubing, are implanted in 300-400 g. male Charles River rats under pentobarbital anesthesia. After a recovery period of at least one week, the rats are restrained in a wire-mesh cylindrical chamber so that the tip of the tail can be positioned at the focal point of a radiant heat source. After an acclimatistation period of 5 minutes, the lamp is turned on and an electric clock activated. Movement of the tip of the tail exposes a photocell to the lamp, which turns off the thermal stimulus and stops the clock. If a rat fails to move its tail within 8 seconds, the heat is automatically turned off to prevent blistering. The intensity of the lamp is adjusted in each case to produce at least three baseline tail-flick latencies of 2.5-4.5 seconds. Tests are initially made every 2 minutes, then every 5 minutes and finally every 15 minutes.
Initially, using the above outlined procedure, the effects of intraventricularly administered leucine-enkephalin are tested in rats according to the above procedure.
The rat tail flick procedure is repeated, first by the simultaneous intraventricular injection of both leucine-enkephalin and bestatin and then by the initial injection of bestatin followed one hour later by the injection of leucine-enkephalin.
The above procedure is repeated again, however, the bestatin is administered first and then one hour later the leucine-enkephalin is administered.
The effects of bestatin alone are tested in rats according to the rat tail flick procedure.

rats = details: fully reversible by naloxone; cited from earlier work
[1] = exogenously (intraventricularly) administered leucine-enkephalin alone, rats

Q: Which “Inhibition of "aminopeptidase"-catalyzed breakdown of enkephalins” value (aminopeptidase) does the source give for CC[C@H](C)[C@H](N)C1=N[C@H](C(=O)N[C@@H](CC(C)C)C(=O)N[C@H](CCC(=O)O)C(=O)N[C@H](C(=O)N[C@H]2CCCCNC(=O)[C@H](CC(N)=O)NC(=O)[C@@H](CC(=O)O)NC(=O)[C@H](Cc3cnc[nH]3)NC(=O)[C@@H](Cc3ccccc3)NC(=O)[C@H]([C@@H](C)CC)NC(=O)[C@@H](CCCN)NC2=O)[C@@H](C)CC)CS1 [bacitracin] ({Ileψ(thiazoline)Cys}-L[dE]IK[dOrn]I[dF]H[dD]N; lactam 4-C) here?
A: effective inhibitors

Q: With CC(C)C[C@H](NC(=O)[C@H](Cc1ccccc1)NC(=O)CNC(=O)CNC(=O)[C@@H](N)Cc1ccc(O)cc1)C(=O)O [leucine-enkephalin, H-Tyr-Gly-Gly-Phe-Leu-OH, reference compound] as the compound, how does the “Time after which the effect dissipates rapidly” value (male Charles River rats; [1]) read?
A: 10 to 12 min

Q: And the “Time to peak analgesic effect” value (male Charles River rats; [1])?
A: 6 to 8 min

Q: And the Tail-flick latency (male Charles River rats; Rat 1, 2 min)?
A: 8.00 s

Q: And the Tail-flick latency (male Charles River rats; Rat 1, 4 min)?
A: 8.00 s

Q: What about the Tail-flick latency (male Charles River rats; Rat 1, 6 min) of the same compound?
A: 8.00 s

Q: What about the Tail-flick latency (male Charles River rats; Rat 1, 8 min) of the same compound?
A: 8.00 s

Q: And the Tail-flick latency (male Charles River rats; Rat 1, 10 min)?
A: 6.15 s

Q: And the Tail-flick latency (male Charles River rats; Rat 1, 12 min)?
A: 5.76 s

Q: What about the Tail-flick latency (male Charles River rats; Rat 1, 14 min) of the same compound?
A: 2.69 s

Q: What about the Tail-flick latency (male Charles River rats; Rat 2, 2 min) of the same compound?
A: 8.00 s

Q: And the Tail-flick latency (male Charles River rats; Rat 2, 4 min)?
A: 8.00 s

Q: What about the Tail-flick latency (male Charles River rats; Rat 2, 6 min) of the same compound?
A: 5.11 s

Q: What about the Tail-flick latency (male Charles River rats; Rat 2, 8 min) of the same compound?
A: 4.24 s

Q: And the Tail-flick latency (male Charles River rats; Rat 2, 10 min)?
A: 3.48 s

Q: And the Tail-flick latency (male Charles River rats; Rat 2, 12 min)?
A: 4.15 s

Q: What about the Tail-flick latency (male Charles River rats; Rat 3, 2 min) of the same compound?
A: 4.88 s

Q: What about the Tail-flick latency (male Charles River rats; Rat 3, 4 min) of the same compound?
A: 8.00 s

Q: And the Tail-flick latency (male Charles River rats; Rat 3, 6 min)?
A: 7.50 s

Q: What about the Tail-flick latency (male Charles River rats; Rat 3, 8 min) of the same compound?
A: 8.00 s

Q: And the Tail-flick latency (male Charles River rats; Rat 3, 10 min)?
A: 4.50 s

Q: And the Tail-flick latency (male Charles River rats; Rat 3, 12 min)?
A: 3.49 s

Q: And the Tail-flick latency (male Charles River rats; Rat 3, 14 min)?
A: 3.04 s

Q: What about the Tail-flick latency (male Charles River rats; Rat 4, 2 min) of the same compound?
A: 6.47 s

Q: And the Tail-flick latency (male Charles River rats; Rat 4, 4 min)?
A: 6.97 s

Q: What about the Tail-flick latency (male Charles River rats; Rat 4, 6 min) of the same compound?
A: 6.62 s

Q: What about the Tail-flick latency (male Charles River rats; Rat 4, 8 min) of the same compound?
A: 7.17 s

Q: And the Tail-flick latency (male Charles River rats; Rat 4, 10 min)?
A: 6.81 s

Q: And the Tail-flick latency (male Charles River rats; Rat 4, 12 min)?
A: 7.52 s

Q: And the Tail-flick latency (male Charles River rats; Rat 4, 14 min)?
A: 3.06 s

Q: And the “Analgesia after injection into the brain ventricle” value (rats)?
A: profound analgesia

Q: For COc1ccc(C[C@H](N)C(=O)N[C@H]2[C@@H](O)[C@H](n3cnc4c(N(C)C)ncnc43)O[C@@H]2CO)cc1 [puromycin], which “Inhibition of "aminopeptidase"-catalyzed breakdown of enkephalins” value (aminopeptidase) is on record?
A: effective inhibitors

Q: For “H-Tyr-Gly-Gly-Phe-Met-OH [methionine-enkephalin]”, which “Analgesia after injection into the brain ventricle” value (rats) is on record?
A: profound analgesia
